This assay has as its system cos-7 cells. Kind of assay: DNA transfection: luciferase expression relative to Lipofectamine 2000. The following applies: for luciferase expression (second part of table, values relative to LIPO2000): 300 ng of DNA per well; for Luciferase expression as a percentage of that achieved using Lipofectamine 2000: 300 ng Luciferase DNA per well, luciferase assay after 48 hours. The assay is classed as cell-based. The method, boiled down:
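Lipid/DNA complexes, 300 ng luciferase DNA per well at 2.5-25 w/w lipid:DNA, were formed in sodium acetate/Optimem and added to overnight-seeded cos-7 cells. Luciferase was measured by Bright-Glo luminescence after 48 hours and quantified against an enzyme standard curve. Values are expressed as % of Lipofectamine 2000 at 2.5 w/w.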

Consider 18 molecules from patent publication US9006487B2, “Amine-containing lipids and uses thereof” (Massachusetts Institute of Technology, priority 2005, dated 2015).

Where “and” joins values, the source holds several entries; their conditions need not be identical. Equal entries are not always repeated.

As for `CCCCCCCCCCCCNC(=O)CCN(CCC(=O)NCCCCCCCCCCCC)C(C)(CO)CO` [ND26], the “luciferase expression (second part of table, values relative to LIPO2000)” value is listed as 13.4 (lipid/DNA 2.5 w/w); 2.3 (lipid/DNA 5 w/w); 0.1 (lipid/DNA 10 w/w); 0.0 (lipid/DNA 15 w/w); 0.0 (lipid/DNA 20 w/w); 0.0 (lipid/DNA 25 w/w).
Turning to `CCCCCCCCCCCCOC(=O)CCN(CCCN1CCOCC1)CCC(=O)OCCCCCCCCCCCC` [LD91], the “Luciferase expression as a percentage of that achieved using Lipofectamine 2000” value (from here on “Luciferase expression as a percentage”) (lipid/DNA 2.5 w/w) amounted to 0.2%; the “Luciferase expression as a percentage” value (lipid/DNA 5 w/w) is reported as 0.2%; the “Luciferase expression as a percentage” value (lipid/DNA 10 w/w) is 0.2%; the “Luciferase expression as a percentage” value (lipid/DNA 15 w/w) is 0.2%; the “Luciferase expression as a percentage” value (lipid/DNA 20 w/w) was 0.2%; the “Luciferase expression as a percentage” value (lipid/DNA 25 w/w) is on record as 0.2%.
In the case of `CCCCCCCCCCCCCCOC(=O)CCN(CCC(=O)OCCCCCCCCCCCCCC)C(CO)CO` [LF25], the “Luciferase expression as a percentage” value was found to be 0.1% (lipid/DNA 2.5 w/w); 0.2% (lipid/DNA 5 w/w); 0.3% (lipid/DNA 10 w/w); 0.4% (lipid/DNA 15 w/w); 0.9% (lipid/DNA 20 w/w); 1.5% (lipid/DNA 25 w/w).
Take `CCCCCCCCCCCCOC(=O)CCN(CCC(=O)OCCCCCCCCCCCC)CCN(CC)CC` [LD75]: the “Luciferase expression as a percentage” value reads like this: (lipid/DNA 2.5 w/w) 0.1%; (lipid/DNA 5 w/w) 0.1%; (lipid/DNA 10 w/w) 0.1%; (lipid/DNA 15 w/w) 0.2%; (lipid/DNA 20 w/w) 0.2%; (lipid/DNA 25 w/w) 0.2%.
Regarding `CCCCCCCCCCOC(=O)CCN(CCOCCO)CCC(=O)OCCCCCCCCCC` [LB31], the “Luciferase expression as a percentage” value (lipid/DNA 2.5 w/w) was 1.2% and 0.1%; the “Luciferase expression as a percentage” value (lipid/DNA 5 w/w) was 0.8% and 0.1%; the “Luciferase expression as a percentage” value (lipid/DNA 10 w/w) is 8.3% and 0.1%; the “Luciferase expression as a percentage” value (lipid/DNA 15 w/w) was 1.9% and 0.1%; the “Luciferase expression as a percentage” value (lipid/DNA 20 w/w) is 1.3% and 0.1%; the “Luciferase expression as a percentage” value (lipid/DNA 25 w/w) was 4.2% and 0.1%.
As for `CCCCCCCCCCCCCCOC(=O)CCN(CCCO)CCC(=O)OCCCCCCCCCCCCCC` [LF20], the “Luciferase expression as a percentage” value turned out to be 0.2% (lipid/DNA 2.5 w/w); 0.4% (lipid/DNA 5 w/w); 0.3% (lipid/DNA 10 w/w); 0.2% (lipid/DNA 15 w/w); 0.1% (lipid/DNA 20 w/w); 0.1% (lipid/DNA 25 w/w).
For `CCCCCCCCCCCCCCOC(=O)CCN(C)CCN(C)CCC(=O)OCCCCCCCCCCCCCC` [LF60], the “Luciferase expression as a percentage” value is, setting by setting: (lipid/DNA 2.5 w/w) 0.4%; (lipid/DNA 5 w/w) 0.4%; (lipid/DNA 10 w/w) 0.5%; (lipid/DNA 15 w/w) 0.5%; (lipid/DNA 20 w/w) 0.5%; (lipid/DNA 25 w/w) 0.5%.
As to `CCCCCCCCCCOC(=O)CCN(CCC(=O)OCCCCCCCCCC)CC(OC)OC` [LB13], the “Luciferase expression as a percentage” value is on record as 0.1% (lipid/DNA 2.5 w/w); 0.1% (lipid/DNA 5 w/w); 0.1% (lipid/DNA 10 w/w); 0.1% (lipid/DNA 15 w/w); 0.1% (lipid/DNA 20 w/w); 0.1% (lipid/DNA 25 w/w).
Take `CCCCCCCCCCCCOC(=O)CCN(CCC(=O)OCCCCCCCCCCCC)CCN(CCO)CCO` [LD86]: the “Luciferase expression as a percentage” value is, setting by setting: (lipid/DNA 10 w/w) 29.6%; (lipid/DNA 15 w/w) 16.0%.
With `CCCCCCCCCCCCCCOC(=O)CC[N+](C)(CCC(=O)OCCCCCCCCCCCCCC)CCC1OCCO1.[I-]` [QF6], the “Luciferase expression as a percentage” value is, setting by setting: (lipid/DNA 2.5 w/w) 0.0%; (lipid/DNA 5 w/w) 0.0%; (lipid/DNA 10 w/w) 0.0%; (lipid/DNA 15 w/w) 0.0%; (lipid/DNA 20 w/w) 0.0%; (lipid/DNA 25 w/w) 0.0%.
Turning to `CCCCCCCCCCCCCCCCCCOC(=O)CCN(CCCO)CCC(=O)OCCCCCCCCCCCCCCCCCC` [LH20], the “Luciferase expression as a percentage” value (lipid/DNA 2.5 w/w) is on record as 0.0%; the “Luciferase expression as a percentage” value (lipid/DNA 5 w/w) was 0.0%; the “Luciferase expression as a percentage” value (lipid/DNA 10 w/w) worked out at 0.0%; the “Luciferase expression as a percentage” value (lipid/DNA 15 w/w) worked out at 0.0%; the “Luciferase expression as a percentage” value (lipid/DNA 20 w/w) was 0.0%; the “Luciferase expression as a percentage” value (lipid/DNA 25 w/w) was found to be 0.0%.
On to `CCCCCCCCCCCCCCCOC(=O)CCN(CCC(=O)OCCCCCCCCCCCCCCC)C[C@H](C)O` [LG22], for which the “Luciferase expression as a percentage” value runs as follows: (lipid/DNA 2.5 w/w) 0.2%; (lipid/DNA 5 w/w) 0.3%; (lipid/DNA 10 w/w) 0.4%; (lipid/DNA 15 w/w) 0.5%; (lipid/DNA 20 w/w) 0.4%; (lipid/DNA 25 w/w) 0.7%.
For `CCCCCCCCCCCCCCCOC(=O)CCN(CCCOC)CCC(=O)OCCCCCCCCCCCCCCC` [LG1], the “Luciferase expression as a percentage” value turned out to be 0.0% (lipid/DNA 2.5 w/w); 0.0% (lipid/DNA 5 w/w); 0.0% (lipid/DNA 10 w/w); 0.0% (lipid/DNA 15 w/w); 0.0% (lipid/DNA 20 w/w); 0.0% (lipid/DNA 25 w/w).
Regarding `CCCCCCCCCCCCCCOC(=O)CCN(CCC(=O)OCCCCCCCCCCCCCC)C(CC)(CO)CO` [LF34], the “Luciferase expression as a percentage” value by setting is: (lipid/DNA 2.5 w/w) 0.1%; (lipid/DNA 5 w/w) 0.3%; (lipid/DNA 10 w/w) 1.1%; (lipid/DNA 15 w/w) 0.5%; (lipid/DNA 20 w/w) 0.2%; (lipid/DNA 25 w/w) 0.3%.
`CCCCCCCCCCCCCCCCCCOC(=O)CCN(CCC(=O)OCCCCCCCCCCCCCCCCCC)C[C@@H](C)O` [LH21]: the “Luciferase expression as a percentage” value came to 0.0% (lipid/DNA 2.5 w/w); 0.0% (lipid/DNA 5 w/w); 0.0% (lipid/DNA 10 w/w); 0.0% (lipid/DNA 15 w/w); 0.0% (lipid/DNA 20 w/w); 0.0% (lipid/DNA 25 w/w).
Turning to `CCCCCCCCCCOC(=O)CCN(CCCN(CC)CC)CCC(=O)OCCCCCCCCCC` [LB81], the “Luciferase expression as a percentage” value (lipid/DNA 2.5 w/w) is reported as 0.4%; the “Luciferase expression as a percentage” value (lipid/DNA 5 w/w) worked out at 0.4%; the “Luciferase expression as a percentage” value (lipid/DNA 10 w/w) is recorded as 0.2%; the “Luciferase expression as a percentage” value (lipid/DNA 15 w/w) is recorded as 0.3%; the “Luciferase expression as a percentage” value (lipid/DNA 20 w/w) is listed as 0.4%; the “Luciferase expression as a percentage” value (lipid/DNA 25 w/w) came out at 0.5%.
For `CCCCCCCCCCOC(=O)CCN(CCCOC)CCC(=O)OCCCCCCCCCC` [LB1], the “Luciferase expression as a percentage” value is 0.1% (lipid/DNA 2.5 w/w); 0.1% (lipid/DNA 5 w/w); 0.1% (lipid/DNA 10 w/w); 0.1% (lipid/DNA 15 w/w); 0.1% (lipid/DNA 20 w/w); 0.2% (lipid/DNA 25 w/w).
In the case of `CCCCCCCCCCOC(=O)CCN(CCC(=O)OCCCCCCCCCC)C[C@@H](C)O` [LB21], the “Luciferase expression as a percentage” value is, setting by setting: (lipid/DNA 2.5 w/w) 0.7%; (lipid/DNA 5 w/w) 0.8%; (lipid/DNA 10 w/w) 0.7%; (lipid/DNA 15 w/w) 0.7%; (lipid/DNA 20 w/w) 0.7%; (lipid/DNA 25 w/w) 0.8%.
